Measured values reported in patent US9481648B2, “Kinase inhibitors” (Respivert Limited, priority 2013, dated 2016).

The compounds below were run against GSK 3α (Homo sapiens (Human), UniProt P49840) (assay: GSK 3α enzyme inhibition (FRET, Z-LYTE; Method 2)). Settings: read-out: IC50 Values for Enzyme Inhibition GSK3α.
Format: biochemical
Protocol: The enzyme inhibitory activities of compounds disclosed herein are determined by FRET using synthetic peptides labelled with both donor and acceptor fluorophores (Z-LYTE, Invitrogen Ltd., Paisley, UK).
The inhibitory activities of compounds of the invention against the GSK 3α enzyme isoform (Invitrogen), are evaluated by determining the level of activation I phosphorylation of the target peptide. The GSK3-α protein (500 ng/mL, 2.5 μL) is mixed with the test compound (2.5 μL at either 4 μg/mL, 0.4 μg/mL, 0.04 μg/mL, or 0.004 μg/mL) for 2 hr at RT. The FRET peptide (8 μM, 2.5 μL), which is a phosphorylation target for GSK3α, and ATP (40 μM, 2.5 μL) are then added to the enzyme\compound mixture and the resulting mixture incubated for 1 hr. Development reagent (protease, 5 μL) is added for 1 hr prior to detection in a fluorescence microplate reader (Varioskan® Flash, ThermoFisher Scientific).
In all cases, the site-specific protease cleaves non-phosphorylated peptide only and eliminates the FRET signal. Phosphorylation levels of each reaction are calculated using the ratio of coumarin emission (donor) over fluorescein emission (acceptor), for which high ratios indicate high phosphorylation and low ratios indicate low phosphorylation levels.
This method follows the same steps as Method 1 above, but utilises a shorter period of mixing of the test compound (105 minutes instead of 2 hours) with the GSK3-α protein. In addition, the concentrations of test compound employed are either 10 μg/mL, 1 μg/mL, 0.1 μg/mL, or 0.01 μg/mL

Chain of GSK 3α (P49840 whole entry): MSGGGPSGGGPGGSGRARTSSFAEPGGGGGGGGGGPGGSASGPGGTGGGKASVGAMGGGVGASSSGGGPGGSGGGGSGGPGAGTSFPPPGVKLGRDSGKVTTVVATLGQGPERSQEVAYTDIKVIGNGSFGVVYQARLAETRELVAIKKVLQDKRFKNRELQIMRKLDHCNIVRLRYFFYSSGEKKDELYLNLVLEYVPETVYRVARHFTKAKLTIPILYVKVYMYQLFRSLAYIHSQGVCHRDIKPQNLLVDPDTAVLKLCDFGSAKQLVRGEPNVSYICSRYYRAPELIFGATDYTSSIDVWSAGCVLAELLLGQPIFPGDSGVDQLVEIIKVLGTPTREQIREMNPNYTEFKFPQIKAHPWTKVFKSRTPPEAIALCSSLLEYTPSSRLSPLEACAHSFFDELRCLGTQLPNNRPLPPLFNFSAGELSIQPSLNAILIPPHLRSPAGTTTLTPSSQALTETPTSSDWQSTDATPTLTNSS

IC50 [nM] | Compound
13800 | COc1cc(Nc2nccc(Oc3ccc(NC(=O)Nc4cc(C(C)(C)C)cc(NS(C)(=O)=O)c4OC)c4ccccc34)n2)cc(C(=O)C2CC2)c1 [Example 50, N-(5-(tert-Butyl)-3-(3-(4-((2-((3-(cyclopropanecarbonyl)-5-methoxyphenyl)amino)-pyrimidin-4-yl)oxy)naphthalen-1-yl)ureido)-2-methoxyphenyl)methanesulfonamide]
829 | COCCOCCOCCOc1cc(Nc2nccc(Oc3ccc(NC(=O)Nc4cc(C(C)(C)C)cc5[nH]c(=O)oc45)c4ccccc34)n2)cc(OC)c1 [Example 63, 1-(5-(tert-Butyl)-2-oxo-2,3-dihydrobenzo[d]oxazol-7-yl)-3-(4-((2-((3-methoxy-5-(2-(2-(2-methoxyethoxy)ethoxy)ethoxy)phenyl)amino)pyrimidin-4-yl)oxy)naphthalen-1-yl)urea]
1460 | COCCOCCOCCOc1cc(Nc2nccc(Oc3ccc(NC(=O)Nc4cc(C(C)(C)C)cc5nc(C)oc45)c4ccccc34)n2)cc(OC)c1 [Example 64, 1-(5-(tert-Butyl)-2-methylbenzo[d]oxazol-7-yl)-3-(4-((2-((3-methoxy-5-(2-(2-(2-methoxy-ethoxy)ethoxy)ethoxy)phenyl)amino)pyrimidin-4-yl)oxy)naphthalen-1-yl)urea]
2620 | COCCOCCOCCOc1cc(Nc2nccc(Oc3ccc(NC(=O)Nc4cc(C(C)(C)C)cc(NS(=O)(=O)C(F)(F)F)c4OC)c4ccccc34)n2)cc(OC)c1 [Example 71]
11300 | COCCOCCOCCOc1cc(Nc2nccc(Oc3ccc(NC(=O)Nc4cc(C(C)(C)C)cc(NS(=O)(=O)C5CCCCC5)c4OC)c4ccccc34)n2)cc(OC)c1 [Example 72, N-(5-(tert-Butyl)-2-methoxy-3-(3-(4-((2-((3-methoxy-5-(2-(2-(2-methoxyethoxy)ethoxy)-ethoxy)phenyl)amino)pyrimidin-4-yl)oxy)naphthalen-1-yl)ureido)phenyl)cyclohexane-sulfonamide]
11300 | COCCOCCOCCOc1cc(Nc2nccc(Oc3ccc(NC(=O)Nc4cc(C(C)(C)C)cc(NS(=O)(=O)N5CCCCC5)c4OC)c4ccccc34)n2)cc(OC)c1 [Example 73, N-(5-(tert-Butyl)-2-methoxy-3-(3-(4-((2-((3-methoxy-5-(2-(2-(2-methoxyethoxy)ethoxy)-ethoxy)phenyl)amino)pyrimidin-4-yl)oxy)naphthalen-1-yl)ureido)phenyl)piperidine-1-sulfonamide]
9680 | COCCOCCOCCOc1cc(Nc2nccc(Oc3ccc(NC(=O)Nc4cc(C(C)(C)C)cc(NS(=O)(=O)N(C)C)c4OC)c4ccccc34)n2)cc(OC)c1 [Example 74, N-(5-(tert-Butyl)-2-methoxy-3-(3-(4-((2-((3-methoxy-5-(2-(2-(2-methoxyethoxy)ethoxy)-ethoxy)phenyl)amino)pyrimidin-4-yl)oxy)naphthalen-1-yl)ureido)phenyl)dimethylamino-sulfonamide]
896 | COc1c(NC(=O)Nc2ccc(Oc3ccnc(Nc4ccccc4)n3)c3ccccc23)cc(C(C)(C)C)cc1C(=O)NC1COC1 [Example 78, 5-(tert-Butyl)-2-methoxy-N-(oxetan-3-yl)-3-(3-(4-((2-(phenylamino)pyrimidin-4-yl)oxy)-naphthalen-1-yl)ureido)benzamide]
182 | COc1c(NC(=O)Nc2ccc(Oc3ccnc(Nc4ccccc4)c3)c(F)c2F)cc(C(C)(C)C)cc1C(=O)NC1COC1 [Example 82, 5-(tert-Butyl)-3-(3-(2,3-difluoro-4-((2-(phenylamino)pyridin-4-yl)oxy)phenyl)ureido)-2-methoxy-N-(oxetan-3-yl)benzamide]
3560 | C#Cc1cc(Nc2cc(Oc3ccc(NC(=O)Nc4cc(C(C)(C)C)cc(NS(C)(=O)=O)c4OC)c4ccccc34)ccn2)cc(C(=O)NCCN2CCN(C)CC2)c1 [Example 85(c), 3-[[4-[[4-[[5-tert-Butyl-3-(methanesulfonamido)-2-methoxyphenyl]-carbamoylamino]-1-nahthyl]oxy]-2-pyridyl]amino]-5-ethynyl-N-[2-(4-methylpiperazin-1-yl)ethyl]benzamide]
300 | COc1cc(Nc2nccc(Oc3ccc(NC(=O)Nc4cc(C(C)(C)C)cc(NS(C)(=O)=O)c4OC)c4ccccc34)n2)cc(C(=O)NCCN2CCN(C)CC2)c1 [Example 85(e), 3-[[4-[[4-[[5-tert-Butyl-3-(methanesulfonamido)-2-methoxyphenyl]-carbamoylamino]-1-naphthyl]oxy]pyrimidin-2-yl]amino]-5-methoxy-N-[2-(4-methyypiperazin-1-yl)ethyl]benzamide]
1160 | COc1cc(Nc2cc(Oc3ccc(NC(=O)Nc4cc(C(C)(C)C)cc(NS(C)(=O)=O)c4OC)c4ccccc34)ccn2)cc(C(=O)NCCN2CCCN(C)CC2)c1 [Example 85(p), 3-[[4-[[4-[[5-tert-Butyl-3-(methanesulfonamido)-2-methoxyphenyl]-carbamoylamino]-1-naphthyl]oxy]-2-pyridyl]amino]-5-methoxy-N-[2-(4-methyl-1,4-diazean-1-yl)ethyl]benzamide]

Compound | IC50 [nM]
COCCOCCOCCOc1cc(Nc2nccc(Oc3ccc(NC(=O)Nc4cc(C(C)(C)C)cc(C(=O)NC(C)C)c4OC)c4ccccc34)n2)cc(OC)c1 [Example 42, 5-(tert-Butyl)-N-isopropyl-2-methoxy-3-(3-(4-((2-((3-methoxy-5-(2-(2-(2-methoxyethoxy)-ethoxy)ethoxy)phenyl)amino)pyrimidin-4-yl)oxy)naphthalen-1-yl)ureido)benzamide] | 705
COCCNC(=O)c1cc(C(C)(C)C)cc(NC(=O)Nc2ccc(Oc3ccnc(Nc4cc(OC)cc(OCCOCCOCCOC)c4)n3)c3ccccc23)c1OC [Example 43, 5-(tert-Butyl)-2-methoxy-3-(3-(4-((2-((3-methoxy-5-(2-(2-(2-methoxyethoxy)ethoxy)-ethoxy)phenyl)amino)pyrimidin-4-yl)oxy)naphthalen-1-yl)ureido)-N-(2-methoxyethyl)-benzamide] | 520
COCCOCCOCCOc1cc(Nc2nccc(Oc3ccc(NC(=O)Nc4cc(C(C)(C)C)cc(C(=O)NCC(=O)O)c4OC)c4ccccc34)n2)cc(OC)c1 [Example 44, 2-(5-(tert-Butyl)-2-methoxy-3-(3-(4-((2-((3-methoxy-5-(2-(2-(2-methoxyethoxy)ethoxy)-ethoxy)phenyl)amino)pyrimidin-4-yl)oxy)naphthalen-1-yl)ureido)benzamido)acetic acid] | 80
C#Cc1cc(Nc2nccc(Oc3ccc(NC(=O)Nc4cc(C(C)(C)C)cc(C(=O)NC)c4OC)c4ccccc34)n2)cc(C(=O)N[C@@H](C)CN2CCOCC2)c1 [Example 60, (S)-5-(tert-Butyl)-3-(3-(4-((2-((3-ethynyl-5-((1-morpholinopropan-2-yl)carbamoyl)phenyl)amino)pyrimidin-4-yl)oxy)naphthalen-1-yl)ureido)-2-methoxy-N-methylbenzamide] | 539
C#Cc1cc(Nc2nccc(Oc3ccc(NC(=O)Nc4cc(C(C)(C)C)cc(C(=O)NC)c4OC)c4ccccc34)n2)cc(C(=O)N[C@H](C)CN2CCOCC2)c1 [Example 61, (R)-5-(tert-Butyl)-3-(3-(4-((2-((3-ethynyl-5-((1-morpholinopropan-2-yl)carbamoyl)phenyl)amino)pyrimidin-4-yl)oxy)naphthalen-1-yl)ureido)-2-methoxy-N-methylbenzamide] | 372
